# Source: paper PMC11312813, “An Optimized Peptide Antagonist of CXCR4 Limits Survival of BCR–ABL1-Transformed Cells in Philadelphia-Chromosome-Positive B-Cell Acute Lymphoblastic Leukemia” (International Journal of Molecular Sciences, 2024)
# Counter-ions that a name gives are not always drawn.
# Assays:
# SupB15 cells = assay: Real-time cell growth by IncuCyte, SupB15; type: cell-based, human; conditions: 1 µM, 96 h; n = 3
# Experimental: (§1) The cells were plated in 100 μL complete medium.
# 697 cells = assay: Real-time cell growth by IncuCyte, 697; type: cell-based, human; conditions: 1 µM, 96 h; n = 3
# Experimental: as §1
# [1] = tested on: TKO-EV cells (untransformed mouse BM pro-B cells); assay: Real-time cell growth analysis by IncuCyte, untransformed TKO-EV cells; conditions: 1 µM, 96 h; n = 3
# Experimental: A flat-bottom 96-well plate was coated with 0.01% poly-L ornithine (#P4957, Sigma-Aldrich, Hamburg, Germany) for 1 h at room temperature (RT). BCR–ABL1, SupB15, and 697 cells were counted as 0.5 × 10^5 cells/well, while TKO-BCR–ABL1 and TKO-EV cells as 1 × 10^5 cells/well, which were labeled with IncuCyte Cytotox Red dye (#4632, Sartorius, Ulm, Germany) as per the manufacturer’s protocol. The cells were plated in 100 μL complete medium. […] Plate was prewarmed at 37 °C for 30 min prior to placing in the IncuCyte chamber. Scanning was conducted every two hours for total of 4 days. Images were acquired using a 20X objective in phase contrast and fluorescence mode at 4 images/well and analyzed using the cell-by-cell analysis module of IncuCyte software version 2020B (Essen Bioscience, Ann Arbor, MI, USA).
# CXCR4 = conditions: ref [14],[17]; cited from earlier work
# [2] = tested on: BCR–ABL1-transformed mouse B cells; assay: Real-time cell growth analysis by IncuCyte (GFP+ cell enrichment); type: cell-based; conditions: 1, 5 and 10 µM, over 96 h; n = 4–5
# Experimental: A flat-bottom 96-well plate was coated with 0.01% poly-L ornithine (#P4957, Sigma-Aldrich, Hamburg, Germany) for 1 h at room temperature (RT). […] The cells were plated in 100 μL complete medium. […] Plate was prewarmed at 37 °C for 30 min prior to placing in the IncuCyte chamber. Scanning was conducted every two hours for total of 4 days.
Compound,CXCL12-induced calcium signaling (CXCR4),further results
"Cc1ccc(NC(=O)c2ccc(CN3CCN(C)CC3)cc2)cc1Nc1nccc(-c2cccnc2)n1 [Imatinib, Imatinib mesylate, reference compound]",,SupB15 cell growth vs DMSO (SupB15 cells): significantly reduced SupB15 cell growth; 697 cell growth vs DMSO (697 cells): no effect on the 697 cells; Survival/growth of TKO-EV cells [1]: no effect on the TKO-EV cells
"ILRWSRK * (Glu-Pal)-NH2 [JM#192, fatty-acid-conjugated optimized EPI-X4 derivative]",block CXCL12-induced calcium signaling,
"ILRWSRK * (Glu-Pal)LPCVS [JM#143, fatty-acid-conjugated optimized EPI-X4 derivative]",block CXCL12-induced calcium signaling,
ILRWSRKLPCVS [JM#21],block CXCL12-induced calcium signaling,
"IVRWSKK * (Pal)VPCVS [JM#169, fatty-acid-conjugated optimized EPI-X4 derivative]",block CXCL12-induced calcium signaling,GFP enrichment (BCR–ABL1 cell growth) vs DMSO [2]: significant reduction in cell growth only after 72 h
"IVRWSKKVPCVS [WSC02, optimized 12-mer EPI-X4 derivative]",block CXCL12-induced calcium signaling,
